From patent US20130324522A1, “INSECT ODORANT RECEPTOR ANTAGONISTS” (THE ROCKEFELLER UNIVERSITY, priority 2010, published 2013)

Assays:
[1] = system: Drosophila melanogaster; experiment: Fly two-choice behavior assay; type: in vivo
Description: Male flies (Drosophila melanogaster) of the w^1118 genotype were “wet-starved” for 24 hours in plastic culture vials lacking food but supplemented with wet cotton plugs on the bottom. After the 24 hour fasting period before the assay, flies were placed into a two-choice behavior chamber. This two-choice chamber consists of one 15 cm Petri dish with two round holes (2.2 cm diameter) that were punched along the midline at an equal distance (2.9 cm) from the rim. Two small plastic vials were connected to the dish and plugged with rigid cotton plugs perforated with 1 mL pipette tips. The bottom of each trap vial was humidified with the same cotton plugs used to plug the vial by soaking the plug in deionized water for a few seconds until it was fully wetted. Each trap contained a small filter paper strip with 10 μL of either water or pure odor (3-methyl-thio-1-propanol). Flies could enter one of the two traps through a plastic pipette tip (1 mL) inserted into top of each vial. 10 μL of RU-14, or solvent (100% ethanol) or DEET was placed on small circular filter paper, and introduced into the pipette tips at the entrance. […] After 24 hours, flies were counted and a response was computed by calculating the percent of flies in each trap. Significance was assessed using the Mann-Whitney U-test. […]

[2] = system: Aedes aegypti; experiment: Mosquito two-port olfactometer behavioral assay; type: in vivo; conditions: 3.5 mg dose; female mosquitoes, human hand odor and CO2, two-port olfactometer
Description: Female Aedes aegypti Orlando mosquitoes (8-11 days old) were used in this assay. Larvae were hatched from dried egg papers and were reared in pans with deionized water supplemented with two tablets of fish food “TetraMin®” from Tetra every day. Pupae were transferred to cages and maintained before and after eclosion at 25° C. and 70-80% humidity with a 12 hr light: 12 hr dark photocycle. Adults were fed a 10% corn syrup solution and were free to mate with each other. One day prior to the assay, females were separated and placed into starvation cartridges (each containing 20 mosquitoes) without any food or water. The cartridges were placed at 25° C. and 70-80% humidity overnight (>l4hr).
A two-port olfactometer, adapted from Gouck (Gouck, H. K. Host preferences of various strains of Aedes aegypti and Aedes simpsoni as determined by an olfactometer. Bull. World Health Org. 47:680-683, 1972) was used to assess the repellent characteristic of small compounds by measuring mosquito host-seeking preference to human odor with a compound or its solvent. […] After 8 minutes, the number of mosquitoes in the trapping chambers (“attracted”) and main compartment (“not-attracted”) was counted. Data were expressed as % attracted/% activated. Significance was assessed using the analysis of variance, ANOVA. […] Significance was assessed using the Mann-Whitney U-test. […]

[3] = system: ab5 neuron that expresses the Or47a/Or83b receptor; experiment: Single sensillum recordings of fly olfactory neurons; type: in vivo, Drosophila melanogaster
Description: Female flies (Drosophila melanogaster) of the w^1118 genotype were immobilized by inserting single adult flies into the wide end of a 200 μL pipette tip, and mounting this on a microscope cover glass with a piece of wax. Antennal olfactory neurons of immobilized flies were subjected to extracellular recording using a Syntech 10x AC probe connected to a Syntech IDAC4 amplifier. The recording electrode was inserted into the ab5 sensillum, which contains two olfactory sensory neurons (OSNs), and the reference electrode was placed into the eye. Action potentials in the OSNs induced by odorant stimulation were recorded. 15 μL of odorant [3-methyl-thio-1-propanol; diluted (v/v) in paraffin oil (10^−5 to 10^−3 dilution)], was applied to a filter strip, and 10 μL of test compounds, DEET, or solvent (100% ethanol) was applied on a second filter strip. Both filter strips were placed into a Pasteur glass pipette connected to the Syntech CS55 stimulus device, and applied to the fly antenna for 1 sec. Corrected spike increases were computed by subtracting the average spontaneous activity in 1 sec before odorant stimulus from the average activity during the stimulus.
The effect of selected compounds on odor-evoked action potentials was measured from the ab5 antennal sensillum, which houses the olfactory neuron that expresses the Or47a/Or83b receptor.

## Fc1cccc(Cl)c1Cn1ccnc1CN(CC1CCCC1)C1CC1 [RU-I4]
[1]; 3.5 mg dose
  suppression of 3MTP attraction: significant suppression

## CCN(CC)C(=O)c1cccc(C)c1 [DEET, N,N-diethyl-m-toluamide, reference compound]
[1]; range of 1 mg to 10 mg
  suppression of 3MTP attraction: significant suppression

## O=C(C1CCCC1)N(Cc1nccn1CCc1c(F)cccc1Cl)C1CC1 [RU-I2]
[2]
  inhibition of host-seeking behavior: significant inhibition
[3]; 3.5 mg dose on a filter paper
  suppression of 3-methyl-thio-1-propanol (3MTP)-evoked action potentials in the ab5 neuron: inhibits responses elicited by 10^−4 to 10^−5 dilutions of 3MTP
[3]; 10 mg dose on a filter paper
  suppression of 3-methyl-thio-1-propanol (3MTP)-evoked action potentials in the ab5 neuron: inhibits responses elicited by 10^−3 to 10^−5 dilutions of 3MTP

## CN(Cc1nccn1Cc1c(F)cccc1Cl)C(=O)C1CCCC1 [RU-I5]
[2]
  inhibition of host-seeking behavior: significant inhibition
[3]; 10 mg dose on a filter paper
  suppression of 3-methyl-thio-1-propanol (3MTP)-evoked action potentials in the ab5 neuron: inhibits responses elicited by 10^−3 to 5×10^−5 dilutions of 3MTP

## C=CCN(Cc1nccn1Cc1cccc(F)c1)C(=O)c1ccccc1F [RU-I1]
[3]; 3.5 mg dose on a filter paper
  suppression of 3-methyl-thio-1-propanol (3MTP)-evoked action potentials in the ab5 neuron: inhibits responses elicited by 5×10^−4 to 10^−5 dilutions of 3MTP
[3]; 10 mg dose on a filter paper
  suppression of 3-methyl-thio-1-propanol (3MTP)-evoked action potentials in the ab5 neuron: inhibits responses elicited by 10^−3 to 10^−5 dilutions of 3MTP
